Experiments:
TNF-α [1] = assay: Inhibition of TNF-α secretion in LPS stimulated peripheral blood mononuclear cells; format: cell-based; settings: LPS stimulated human PBMC, 18 hours, ELISA; read-out: The median inhibition concentration (IC50, nM) of TNF-α
Method: (§1) To study the effect of compounds of the present invention in vitro, the inhibition of IL-1β and TNF-α secretion was determined using the following procedure:
(§2) Cytokine production was measured in the media from lipopolysaccharide (LPS) stimulated peripheral blood mononuclear cells. The mononuclear cells were isolated from human peripheral blood by Lymphoprep® (Nycomed, Norway) fractionation and suspended in RPMI 1640 (growth medium) with foetal calf serum (FCS, 2%), at a concentration of 5×10^5 cells/ml. The cells were incubated in 24-well tissue culture plates in 1 ml aliquots. Test compounds were dissolved in dimethylsulfoxide (DMSO, 10 mM) and were diluted with the medium. Compounds were added to the cells for 30 minutes, then LPS ([…] final concentration) was added. The plates were incubated for 18 hours, and the concentration of IL-1β and TNF-α in the medium was determined by enzyme-linked immunosorbent assays. The median inhibitory concentrations (IC50) of the compounds were calculated.

TNF-α [2] = assay: In vivo screening model of LPS induced TNF-α response in mice; settings: Mus musculus, po, 1 mg/kg p.o., 1 hour prior to LPS, plasma TNF-α 80-90 minutes after LPS, read-out: In vivo inhibition of LPS induced TNF-α production (in %)
Method: In Vivo Screening Model of LPS Induced TNF-α Response in Mice
To study the effect of compounds of the present invention in vivo, an in vivo screening model of LPS induced TNF-α response in mice was set up as follows: Groups of 6 mice (C3H/HeN, female, about 8 weeks (20 g), Bomholtgaard) were dosed with test compounds in suspension vehicle 1 hour prior to LPS administration (LPS from E. coli 055:B5, L-4005, Sigma). At time 0, the mice were dosed ip with 1.0 mg LPS/kg. After anesthetization with Hypnorm/Dormicum, the mice were bled from the periorbital venous plexus 80-90 minutes after LPS administration. The blood samples were sampled in EDTA stabilised tubes and centrifuged at 4000 rpm for 10 minutes at 4° C. The plasma level of TNF-α was analysed by ELISA. Compound 156 of WO 98/32730 was used as reference compound. The plasma level of TNF-α was determined using a sandwich ELISA. Microtiter plates were coated with a monoclonal antibody against mouse TNF-α, washed and blocked with a casein buffer. Samples of mouse TNF-α recombinant standards were added to the wells of the microtiter plates and incubated. All standards were tested in triplicate, all plasma samples in single. After sample and standard incubation, the plates were washed and incubated with biotinylated polyclonal secondary antibody against mouse TNF-α and washed. Enzyme conjugate was added to all wells and incubated. Substrate was added and the enzyme/substrate reaction stopped after 15 minutes at room temperature with 1M H2SO4. The colour development (OD) was measured at 450 nm on an ELISA reader and the background OD at 620 nm was subtracted. […] The results of the tested compounds are indicated as a percentage inhibition compared to an LPS treated control group. Compounds were tested at 1 mg/kg (p.o.). The Mann-Whitney test was used to compare drug treated groups to the LPS treated control group (p<0.05).

IL-1β = assay: Inhibition of IL-1β secretion in LPS stimulated peripheral blood mononuclear cells; format: cell-based; settings: LPS stimulated human PBMC, 18 hours, ELISA; read-out: The median inhibition concentration (IC50, nM) of IL-1β
Method: as §1, §2

Structure (SMILES) | IC50 (TNF-α [1]) [nM] | IC50 (IL-1β) [nM] | inhibition in vivo at 1 mg/kg (TNF-α [2]) [%]
Cc1ccc(-c2cn(CC(O)CO)nn2)cc1C(=O)c1ccc(Nc2ccc(F)cc2F)cc1Cl (centres unmarked) [Compound 106, [2-Chloro-4-(2,4-difluoro-phenylamino)-phenyl]-{5-[1-(2,3-dihydroxy-propyl)-1H-[1,2,3]triazol-4-yl]-2-methyl-phenyl}-methanone] | 0.5 | 0.7 | 98
CCOC(=O)Cn1cc(-c2ccc(C)c(C(=O)c3ccc(Nc4ccc(F)cc4F)cc3Cl)c2)nn1 [Compound 110, (4-{3-[2-Chloro-4-(2,4-difluoro-phenylamino)-benzoyl]-4-methyl-phenyl}-[1,2,3]triazol-1-yl)-acetic acid ethyl ester] | 3.6 | 6.3 | –
Cc1ccc(-n2cc(CCO)nn2)cc1C(=O)c1ccc(Nc2ccc(F)cc2Cl)cc1Cl [Compound 118, [2-Chloro-4-(2-chloro-4-fluoro-phenylamino)-phenyl]-{5-[4-(2-hydroxy-ethyl)-[1,2,3]triazol-1-yl]-2-methyl-phenyl}-methanone] | 0.9 | 1.3 | –
Cc1ccc(-n2cc(CCO)nn2)cc1C(=O)c1ccc(Nc2ccc(F)cc2F)cc1Cl [Compound 128, [2-Chloro-4-(2,4-difluoro-phenylamino)-phenyl]-{5-[4-(2-hydroxy-ethyl)-[1,2,3]triazol-1-yl]-2-methyl-phenyl}-methanone] | 1 | – | 95
Cc1ccc(-n2cc(C(C)(C)O)nn2)cc1C(=O)c1ccc(Nc2ccc(F)cc2F)cc1Cl [Compound 129, [2-Chloro-4-(2,4-difluoro-phenylamino)-phenyl]-{5-[4-(1-hydroxy-1-methyl-ethyl)-[1,2,3]triazol-1-yl]-2-methyl-phenyl}-methanone] | 1.4 | – | 83
Cc1ccc(-n2cc(CCN)nn2)cc1C(=O)c1ccc(Nc2ccc(F)cc2F)cc1Cl [Compound 136, {5-[4-(2-Amino-ethyl)-[1,2,3]triazol-1-yl]-2-methyl-phenyl}-[2-chloro-4-(2,4-difluoro-phenylamino)-phenyl]-methanone] | 1.3 | 1.6 | –
Cc1ccc(-n2cc(CCN3CCOCC3)nn2)cc1C(=O)c1ccc(Nc2ccc(F)cc2F)cc1Cl [Compound 138, [2-Chloro-4-(2,4-difluoro-phenylamino)-phenyl]-{2-methyl-5-[4-(2-morpholin-4-yl-ethyl)-[1,2,3]triazol-1-yl]-phenyl}-methanone] | 2 | 3.2 | –
CCN(CC)CCc1cn(-c2ccc(C)c(C(=O)c3ccc(Nc4ccc(F)cc4F)cc3Cl)c2)nn1 [Compound 140, [2-Chloro-4-(2,4-difluoro-phenylamino)-phenyl]-{5-[4-(2-diethylamino-ethyl)-[1,2,3]triazol-1-yl]-2-methyl-phenyl}-methanone] | 0.8 | 2 | –
Cc1ccc(-n2cc(CCNCCO)nn2)cc1C(=O)c1ccc(Nc2ccc(F)cc2F)cc1Cl [Compound 141, [2-Chloro-4-(2,4-difluoro-phenylamino)-phenyl]-(5-{4-[2-(2-hydroxy-ethylamino)-ethyl]-[1,2,3]triazol-1-yl}-2-methyl-phenyl)-methanone] | 0.6 | 0.6 | –
Cc1cc(Cl)ccc1Nc1ccc(C(=O)c2cc(-n3cc(CCO)nn3)ccc2C)c(Cl)c1 [Compound 145, [2-Chloro-4-(4-chloro-2-methyl-phenylamino)-phenyl]-{5-[4-(2-hydroxy-ethyl)-[1,2,3]triazol-1-yl]-2-methyl-phenyl}-methanone] | 2 | 5 | –

Second part, led by results:

IC50 (TNF-α [1]) [nM] | IC50 (IL-1β) [nM] | Structure (SMILES) | inhibition in vivo at 1 mg/kg (TNF-α [2]) [%]
0.5 | 0.6 | Cc1ccc(-c2cn(CCCO)nn2)cc1C(=O)c1ccc(Nc2ccc(F)cc2F)cc1Cl [Compound 104, [2-Chloro-4-(2,4-difluoro-phenylamino)-phenyl]-{5-[1-(3-hydroxy-propyl)-1H-[1,2,3]triazol-4-yl]-2-methyl-phenyl}-methanone] | 90
1.4 | – | Cc1ccc(-c2cn(CC3COC(C)(C)O3)nn2)cc1C(=O)c1ccc(Nc2ccc(F)cc2F)cc1Cl (centres unmarked) [Compound 105, [2-Chloro-4-(2,4-difluoro-phenylamino)-phenyl]-{5-[1-(2,2-dimethyl-[1,3]dioxolan-4-ylmethyl)-1H-[1,2,3]triazol-4-yl]-2-methyl-phenyl}-methanone] | –
0.5 | 0.8 | Cc1ccc(-c2cn(CC(N)=O)nn2)cc1C(=O)c1ccc(Nc2ccc(F)cc2F)cc1Cl [Compound 107, 2-(4-{3-[2-Chloro-4-(2,4-difluoro-phenylamino)-benzoyl]-4-methyl-phenyl}-[1,2,3]triazol-1-yl)-acetamide] | 91
0.7 | 1.3 | Cc1ccc(-c2cn(CCCS(N)(=O)=O)nn2)cc1C(=O)c1ccc(Nc2ccc(F)cc2F)cc1Cl [Compound 108, 3-(4-{3-[2-Chloro-4-(2,4-difluoro-phenylamino)-benzoyl]-4-methyl-phenyl}-[1,2,3]triazol-1-yl)-propane-1-sulfonic acid amide] | 78
0.6 | 6.3 | Cc1ccc(-c2cn(CC(=O)NC(C)(C)CO)nn2)cc1C(=O)c1ccc(Nc2ccc(F)cc2F)cc1Cl [Compound 113, 2-(4-{3-[2-Chloro-4-(2,4-difluoro-phenylamino)-benzoyl]-4-methyl-phenyl}-[1,2,3]triazol-1-yl)-N-(2-hydroxy-1,1-dimethyl-ethyl)-acetamide] | –
1.1 | 1.6 | Cc1ccccc1Nc1ccc(C(=O)c2cc(-n3cc(CCO)nn3)ccc2C)c(Cl)c1 [Compound 117, (2-Chloro-4-o-tolylamino-phenyl)-{5-[4-(2-hydroxy-ethyl)-[1,2,3]triazol-1-yl]-2-methyl-phenyl}-methanone] | –
0.8 | 5 | COc1ccc(-c2cn(CCO)nn2)cc1C(=O)c1ccc(Nc2ccc(F)cc2F)cc1Cl [Compound 120, [2-Chloro-4-(2,4-difluoro-phenylamino)-phenyl]-{5-[1-(2-hydroxy-ethyl)-1H-[1,2,3]triazol-4-yl]-2-methoxy-phenyl}-methanone] | –
0.6 | 1.3 | CC(=O)c1cn(-c2ccc(C)c(C(=O)c3ccc(Nc4ccc(F)cc4F)cc3Cl)c2)nn1 [Compound 130, 1-(1-{3-[2-Chloro-4-(2,4-difluoro-phenylamino)-benzoyl]-4-methyl-phenyl}-1H-[1,2,3]triazol-4-yl)-ethanone] | –
0.3 | 1 | Cc1ccc(-n2cc(CNC(N)=O)nn2)cc1C(=O)c1ccc(Nc2ccc(F)cc2F)cc1Cl [Compound 137, (1-{3-[2-Chloro-4-(2,4-difluoro-phenylamino)-benzoyl]-4-methyl-phenyl}-1H-[1,2,3]triazol-4-ylmethyl)-urea] | –
0.5 | 1.6 | Cc1ccc(-n2cc(CCN3CCN(C)CC3)nn2)cc1C(=O)c1ccc(Nc2ccc(F)cc2F)cc1Cl [Compound 139, [2-Chloro-4-(2,4-difluoro-phenylamino)-phenyl]-(2-methyl-5-{4-[2-(4-methyl-piperazin-1-yl)-ethyl]-[1,2,3]triazol-1-yl}-phenyl)-methanone] | –
0.8 | 1 | CCCNCCc1cn(-c2ccc(C)c(C(=O)c3ccc(Nc4ccc(F)cc4F)cc3Cl)c2)nn1 [Compound 142, [2-Chloro-4-(2,4-difluoro-phenylamino)-phenyl]-{2-methyl-5-[4-(2-propylamino-ethyl)-[1,2,3]triazol-1-yl]-phenyl}-methanone] | –
1 | 4 | Cc1cc(F)ccc1Nc1ccc(C(=O)c2cc(-n3cc(CCO)nn3)ccc2C)c(Cl)c1 [Compound 143, [2-Chloro-4-(4-fluoro-2-methyl-phenylamino)-phenyl]-{5-[4-(2-hydroxy-ethyl)-[1,2,3]triazol-1-yl]-2-methyl-phenyl}-methanone] | –

Source: patent US8293772B2, “Triazole substituted aminobenzophenone compounds” (Leo Pharma A/S, priority 2004, dated 2012)
